Results published in patent US12649722B2, “Herbicidal cinnoline derivatives” (SYNGENTA CROP PROTECTION AG, priority 2020, dated 2026).

What was measured:
Assay type in all cases: in vivo
[1] = tested on: Ipornoea hederacea (IPOHE); assay: Post-emergence Test, IPOHE; conditions: sprayed after 8 days cultivation, 1000 g/ha, evaluated after 13 days
Method: (§1) Seeds of a variety of test species are sown in standard soil in pots (Amaranthus retoflexus (AMARE), Solarium nigrum (SOLNI), Setaria faberi (SETFA), Lolium perenne (LOLPE), Echinochloa crus-galli (ECHCG), Ipornoea hederacea (IPOHE)). After 8 days cultivation under controlled conditions in a glasshouse (at 24° C./16° C., day/night; 14 hours light; 65% humidity), the plants are sprayed with an aqueous spray solution derived from the formulation of the technical active ingredient in acetone/water (50:50) solution containing 0.5% Tween 20 (polyoxyethylene sorbitan monolaurate, CAS RN 9005-64-5). Compounds are applied at 1000 g/ha unless otherwise stated. The test plants are then grown in a glasshouse under controlled conditions in a glasshouse (at 24° C./16° C., day/night; 14 hours light; 65% humidity) and watered twice daily. After 13 days the test is evaluated for the percentage damage caused to the plant. The biological activities are shown in the following table on a five-point scale (5=81-100%; 4=61-80%; 3=41-60%; 2=21-40%; 1=10-20%; 0=0%; −=not tested).

[2] = tested on: ZEAMX; assay: Post-emergence Test, ZEAMX; conditions: sprayed after 8 days cultivation, 1000 g/ha, evaluated after 13 days
Method: [The procedure below names another target; the source lists this target under the same test.] as §1

[3] = tested on: Echinochloa crus-galli (ECHCG); assay: Pre-emergence Test, ECHCG; conditions: 1000 g/ha, evaluated after 13 days
[4] = tested on: Echinochloa crus-galli (ECHCG); assay: Post-emergence Test, ECHCG; conditions: sprayed after 8 days cultivation, 1000 g/ha, evaluated after 13 days
Method: as §1

[5] = tested on: Setaria faberi (SETFA); assay: Post-emergence Test, SETFA; conditions: sprayed after 8 days cultivation, 1000 g/ha, evaluated after 13 days
Method: as §1

[6] = tested on: ZEAMX; assay: Pre-emergence Test, ZEAMX; conditions: 1000 g/ha, evaluated after 13 days
[7] = tested on: Ipornoea hederacea (IPOHE); assay: Pre-emergence Test, IPOHE; conditions: 1000 g/ha, evaluated after 13 days
[8] = tested on: Amaranthus retoflexus (AMARE); assay: Pre-emergence Test, AMARE; conditions: 1000 g/ha, evaluated after 13 days
[9] = tested on: ABUTH; assay: Post-emergence Test, ABUTH; conditions: sprayed after 8 days cultivation, 1000 g/ha, evaluated after 13 days
Method: [The procedure below names another target; the source lists this target under the same test.] as §1

[10] = tested on: Setaria faberi (SETFA); assay: Pre-emergence Test, SETFA; conditions: 1000 g/ha, evaluated after 13 days
[11] = tested on: Amaranthus retoflexus (AMARE); assay: Post-emergence Test, AMARE; conditions: sprayed after 8 days cultivation, 1000 g/ha, evaluated after 13 days
Method: as §1

[12] = tested on: ABUTH; assay: Pre-emergence Test, ABUTH; conditions: 1000 g/ha, evaluated after 13 days

SMILES | percentage damage caused to the plant, IPOHE [1] | percentage damage caused to the plant, ZEAMX [2] | percentage damage caused to the plant, ECHCG [3] | percentage damage caused to the plant, ECHCG [4] | percentage damage caused to the plant, SETFA [5] | percentage damage caused to the plant, ZEAMX [6] | percentage damage caused to the plant, IPOHE [7] | percentage damage caused to the plant, AMARE [8] | percentage damage caused to the plant, ABUTH [9] | percentage damage caused to the plant, SETFA [10] | percentage damage caused to the plant, AMARE [11] | percentage damage caused to the plant, ABUTH [12]
O=C(O)c1nn(-c2ccc(OC(F)(F)F)cc2)c2cccc(-n3cc(Cl)cn3)c2c1=O [Compound P19] | 2 (2=21-40%) | 2 (2=21-40%) | 3 (3=41-60%) | 3 (3=41-60%) | 4 (4=61-80%) | 1 (1=10-20%) | 0 (0=0%) | 0 (0=0%) | 1 (1=10-20%) | 4 (4=61-80%) | 2 (2=21-40%) | 0 (0=0%)
CCOC(=O)c1nn(-c2ccc(OC(F)(F)F)cc2)c2cccc(C(F)F)c2c1=O [Compound P36, ethyl 5-(difluoromethyl)-4-oxo-1-[4-(trifluoromethoxy)phenyl] cinnoline-3-carboxylate] | 0 (0=0%) | 0 (0=0%) | 0 (0=0%) | 0 (0=0%) | 1 (1=10-20%) | 0 (0=0%) | 1 (1=10-20%) | 0 (0=0%) | 0 (0=0%) | 2 (2=21-40%) | 0 (0=0%) | 1 (1=10-20%)
CCOC(=O)c1nn(-c2ccc(OC(F)(F)F)cc2)c2cccc(CC#N)c2c1=O [Compound P35, ethyl 5-(cyanomethyl)-4-oxo-1-[4-(trifluoromethoxy)phenyl] cinnoline-3-carboxylate] | 0 (0=0%) | 3 (3=41-60%) | 5 (5=81-100%) | 4 (4=61-80%) | 4 (4=61-80%) | 2 (2=21-40%) | 0 (0=0%) | 1 (1=10-20%) | 0 (0=0%) | 5 (5=81-100%) | 0 (0=0%) | 0 (0=0%)
O=C(O)c1nn(-c2ccc(OC(F)(F)F)cc2)c2cccc(C(F)F)c2c1=O [Compound P37, 5-(difluoromethyl)-4-oxo-1-[4-(trifluoromethoxy)phenyl] cinnoline-3-carboxylic acid] | 1 (1=10-20%) | 1 (1=10-20%) | 0 (0=0%) | 2 (2=21-40%) | 2 (2=21-40%) | 0 (0=0%) | 0 (0=0%) | 0 (0=0%) | 0 (0=0%) | 0 (0=0%) | 1 (1=10-20%) | 0 (0=0%)
CCOC(=O)c1nn(-c2ccc(OC(F)(F)F)cc2)c2cccc(N3CCCCC3)c2c1=O [Compound P27, ethyl 4-oxo-5-(1-piperidyl)-1-[4-(trifluoromethoxy)phenyl] cinnoline-3-carboxylate] | 0 (0=0%) | 0 (0=0%) | 0 (0=0%) | 0 (0=0%) | 0 (0=0%) | 0 (0=0%) | 0 (0=0%) | 0 (0=0%) | 0 (0=0%) | 0 (0=0%) | 0 (0=0%) | 0 (0=0%)
O=C(O)c1nn(-c2ccc(OC(F)(F)F)cc2)c2cccc(-c3cc(C(F)F)on3)c2c1=O [Compound P13, 5-[5-(difluoromethyl)isoxazol-3-yl]-4-oxo-1-[4-(trifluoromethoxy)phenyl] cinnoline-3-carboxylic acid] | 2 (2=21-40%) | 3 (3=41-60%) | 0 (0=0%) | 3 (3=41-60%) | 4 (4=61-80%) | 0 (0=0%) | 0 (0=0%) | 0 (0=0%) | 0 (0=0%) | 0 (0=0%) | 1 (1=10-20%) | 0 (0=0%)
O=C(O)c1nn(-c2ccc(OC(F)(F)F)cc2)c2cccc([N+](=O)[O-])c2c1=O [Compound P40, 5-nitro-4-oxo-1-[4-(trifluoromethoxy)phenyl] cinnoline-3-carboxylic acid] | 0 (0=0%) | 1 (1=10-20%) | 2 (2=21-40%) | 3 (3=41-60%) | 5 (5=81-100%) | 0 (0=0%) | 0 (0=0%) | 2 (2=21-40%) | – | 5 (5=81-100%) | 1 (1=10-20%) | 3 (3=41-60%)
CCOC(=O)c1nn(-c2ccc(OC(F)(F)F)cc2)c2cccc(-c3cc(C(F)F)on3)c2c1=O [Compound P12, ethyl 5-[5-(difluoromethyl)isoxazol-3-yl]-4-oxo-1-[4-(trifluoromethoxy)phenyl] cinnoline-3-carboxylate] | 2 (2=21-40%) | 1 (1=10-20%) | 0 (0=0%) | 0 (0=0%) | 2 (2=21-40%) | – | 0 (0=0%) | 0 (0=0%) | 1 (1=10-20%) | 0 (0=0%) | 0 (0=0%) | 0 (0=0%)
CCOC(=O)c1nn(-c2ccc(OC(F)(F)F)cc2)c2cccc([N+](=O)[O-])c2c1=O [Compound P39, ethyl 5-nitro-4-oxo-1-[4-(trifluoromethoxy)phenyl] cinnoline-3-carboxylate] | 0 (0=0%) | 0 (0=0%) | 2 (2=21-40%) | 3 (3=41-60%) | 3 (3=41-60%) | 0 (0=0%) | 0 (0=0%) | 0 (0=0%) | – | 5 (5=81-100%) | 0 (0=0%) | 1 (1=10-20%)
CCOC(=O)c1nn(-c2ccc(OC)c(OC)c2)c2cccc(C#N)c2c1=O [Compound P42, ethyl 5-cyano-1-(3,4-dimethoxyphenyl)-4-oxo-cinnoline-3-carboxylate] | 0 (0=0%) | 0 (0=0%) | 0 (0=0%) | – | 0 (0=0%) | 0 (0=0%) | 0 (0=0%) | 0 (0=0%) | 0 (0=0%) | 0 (0=0%) | 0 (0=0%) | 0 (0=0%)
COc1ccc(-n2nc(C(=O)O)c(=O)c3c(C#N)cccc32)cc1OC [Compound P41, 5-cyano-1-(3,4-dimethoxyphenyl)-4-oxo-cinnoline-3-carboxylic acid] | 1 (1=10-20%) | 0 (0=0%) | 0 (0=0%) | – | 2 (2=21-40%) | 0 (0=0%) | 0 (0=0%) | 0 (0=0%) | 1 (1=10-20%) | 0 (0=0%) | 0 (0=0%) | 0 (0=0%)
